Assay results: article PMC7734006 (Cancer Science, 2020)

Tests used:
[1] = system: relapsed or refractory systemic ALCL; details: cited from earlier work
[2] = Plasma alectinib pharmacokinetics; assay type: in vivo, human
[3] = system: relapsed or refractory ALCL; details: 6 of 17 patients; cited from earlier work
[4] = system: relapsed or refractory ALCL; details: 36 pediatric patients treated weekly; cited from earlier work
[5] = patients who achieved CR with BV

Compound: BV: anti-CD30 Ab drug conjugated to the microtubule-disrupting agent, monomethyl auristatin E
- CR rate ([1]; 33 of 58 patients): 57%
- Objective response rate ([1]; 50 of 58 patients): 86%
- Patients without recurrence with no treatment after a BV treatment regime [1]: approximately 15%
- Peripheral neuropathies, patients [1]: 41%
- 5-year OS [1, 5]: 79%
- 5-year PFS [1, 5]: 57%

Compound: CCc1cc2c(cc1N1CCC(N3CCOCC3)CC1)C(C)(C)c1[nH]c3cc(C#N)ccc3c1C2=O [alectinib]
- Time to steady-state peak concentration (median) ([2]; cohort A: younger than 15 years, 300 mg/d): 4 h
- Time to steady-state peak concentration (median) ([2]; cohort B: younger than 15 years, 600 mg/d): 5 h
- Time to steady-state peak concentration (median) ([2]; cohort C: 15 years or older, 600 mg/d): 4 h
- Peak concentration of alectinib ([2]; the patient who died following disease progression after the first course (cohort C)): 16.97 mg/mL

Compound: C#CCC(Cc1cnc2nc(N)nc(N)c2n1)c1ccc(C(=O)N[C@@H](CCC(=O)O)C(=O)O)cc1 (stereo partly shown) [pralatrexate]
- Objective response rate [3]: 35%

Compound: CC[C@]1(O)C[C@@H]2CN(CCc3c([nH]c4ccccc34)[C@@](C(=O)OC)(c3cc4c(cc3OC)N(C)[C@H]3[C@@](O)(C(=O)OC)[C@H](OC(C)=O)[C@]5(CC)C=CCN6CC[C@]43[C@@H]65)C2)C1 [vinblastine]
- 5-year EFS rate [4]: 30%
- CR rate [4]: 83%
